Test results reported in patent US4971967A, “Quinolinecarboxylic acid derivatives, antibacterial compositions and use” (Kanebo Ltd, priority 1989, dated 1990).
≈ marks a conversion by molar mass, not a printed value. Structures can show the parent of a compound that is named as a salt. Where two headings read alike, the source gives them in different places.

Legend:
[1] = system: Pseudomonas aeruginosa NCTC 10490; test: Antibacterial activity (MIC), P. aeruginosa NCTC 10490; format: cell-based; details: Pseudomonas aeruginosa, NCTC10490, Pseudomonas aeruginosa NCTC 10490, Gram -; read-out: Minimum inhibitory concentration (MIC)
Experimental: (§1) The compounds of the present invention (A, C, D, E, F, G, H, I, J, L, O and P) and the known compound (X) as reference were dissolved in 0.1 N aqueous sodium hydroxide to prepare a solution of 5000 μg/ml in concentration. The compounds of the present invention (B, K, M and N) and the known compound (Y) were dissolved in sterilized distilled water to prepare a solution of 5000 μg/ml in concentration. Each solution was diluted with sterilized distilled water to prepare a standard solution with a concentration of each test compound: 1000 μg/ml. The test was carried out by a method as appointed by Japan Society of Chemotherapy [cf. Chemotherapy, 29, 76-79 (1981)(TOKYO)].

[2] = system: clinically isolated methicillin resistant Staphylococcus aureus; test: MIC against clinically isolated methicillin resistant Staphylococcus aureus; format: cell-based; details: 54 strains; for MIC50: minimum concentration for inhibiting growth of the strains by 50%; for MIC90: minimum concentration for inhibiting growth of the strains by 90%
Experimental: The compounds (A) and (J) of the present invention and the known compound (X) were dissolved in 0.1 N aqueous sodium hydroxide, and the known compound (Y) in sterilized distilled water, to prepare a solution of 5000 μg/ml in concentration each. The above solutions were then diluted with sterilized distilled water to prepare a standard solution with a concentration of the test compound: 1000 μg/ml each. The test was carried out by a method appointed by Japan Society of Chemotherapy (ibidem) to measure minimum inhibitory concentration (MIC) against 54 strains of clinically isolated methicillin resistant Staphylococcus aureus, from which there were calculated a range of MIC (MICrange) of the test compound against these resistant strains, a minimum concentration for inhibiting the growth of the strains by 50% (MIC50) and a minimum concentration for inhibiting the growth of the strains by 90% (MIC90).

[3] = system: Citrobacter freundii NIHJ 10018-68; test: Antibacterial activity (MIC), Citrobacter freundii NIHJ 10018-68; format: cell-based; details: Citrobacter freundii, NIHJ10018, Citrobacter freundii NIHJ 10018-68, Gram -; read-out: Minimum inhibitory concentration (MIC)
Experimental: as §1

Enterobacter cloacae 963 = test: Antibacterial activity (MIC), Enterobacter cloacae 963; format: cell-based; details: Enterobacter cloacae, 963, Enterobacter cloacae 963, Gram -; read-out: Minimum inhibitory concentration (MIC)
Experimental: as §1

[4] = system: Streptococcus faecalis IID 682; test: Antibacterial activity (MIC), Streptococcus faecalis IID 682; format: cell-based; details: Enterococcus faecalis, IID682, Streptococcus faecalis IID 682, Gram +; read-out: Minimum inhibitory concentration (MIC)
Experimental: as §1

[5] = system: Staphylococcus aureus IID 803; test: Antibacterial activity (MIC), S. aureus IID 803; format: cell-based; details: IID803; Staphylococcus aureus IID 803, Gram +; read-out: Minimum inhibitory concentration (MIC)
Experimental: as §1

[6] = system: Bacillus subtilis ATCC 6633; test: Antibacterial activity (MIC), Bacillus subtilis ATCC 6633; format: cell-based; details: Bacillus subtilis, ATCC6633, Bacillus subtilis ATCC 6633, Gram +; read-out: Minimum inhibitory concentration (MIC)
Experimental: as §1

Proteus vulgaris OX-19 = test: Antibacterial activity (MIC), Proteus vulgaris OX-19; format: cell-based; details: OX19; Proteus vulgaris OX-19, Gram -; read-out: Minimum inhibitory concentration (MIC)
Experimental: as §1

[7] = system: Pseudomonas aeruginosa E-2; test: Effect on treatment of general infectious disease, P. aeruginosa E-2 (Experiment 3); format: in vivo, ddY male mice infected with Pseudomonas aeruginosa; details: E2, 168 h, oral, 1 h after i.p. infection, 3.1×10^4 CFU/mouse, survival after one week
Experimental: Pseudomonas aeruginosa E-2 (3.1×10^4 CFU/mouse)
(§2) The test microorganisms were subjected to standing culture in Trypto-Soya Agar "Nissui" (made by Nissui Seiyaku K.K., Japan) at 37° C. for 16 to 18 hours. The culture was then diluted with PBS (Dulbecco's phosphate buffered saline) and mixed with an equivalent amount of 10% (w/v) Mucin (BACTO MUCIN BACTERIOLOGICAL, made by Difco Co.) to prepare a microorganism solution. The thus prepared microorganism solution (0.5 ml each) was intraperitoneally inoculated to ddY male mice (5 weeks age, weighing 25-28 g, 5 mice in each group), to infect the animals. One hour after the infection, the compound (A) or (J) of the present invention or the known compound (X) suspended in 1% (w/v) aqueous gum arabic or the known compound (Y) dissolved in sterilized distilled water was orally adiministered to mice.
(§3) The mice were daily observed for one week, and from the survival number of mice after one week, the 50% effective dose (ED50) was calculated by Weil method.

[8] = system: Enterobacter aerogenes ATCC 13048; test: Antibacterial activity (MIC), Enterobacter aerogenes ATCC 13048; format: cell-based; details: Klebsiella aerogenes, ATCC13048; Enterobacter aerogenes ATCC 13048, Gram -; read-out: Minimum inhibitory concentration (MIC)
Experimental: as §1

[9] = system: Pseudomonas aeruginosa IFO 3445; test: Antibacterial activity (MIC), P. aeruginosa IFO 3445; format: cell-based; details: Pseudomonas aeruginosa, IFO3445, Pseudomonas aeruginosa IFO 3445, Gram -; read-out: Minimum inhibitory concentration (MIC)
Experimental: as §1

[10] = system: Staphylococcus epidermidis IAM-1296; test: Antibacterial activity (MIC), S. epidermidis IAM-1296; format: cell-based; details: Staphylococcus epidermidis, IAM1296, Staphylococcus epidermidis IAM-1296, Gram +; read-out: Minimum inhibitory concentration (MIC)
Experimental: as §1

[11] = system: Proteus mirabilis IFO 3849; test: Antibacterial activity (MIC), Proteus mirabilis IFO 3849; format: cell-based; details: IFO3849; Proteus mirabilis IFO 3849, Gram -; read-out: Minimum inhibitory concentration (MIC)
Experimental: as §1

[12] = system: Serratia marcescens IAM 1184; test: Antibacterial activity (MIC), Serratia marcescens IAM 1184; format: cell-based; details: Serratia marcescens, IAM1184, Serratia marcescens IAM 1184, Gram -; read-out: Minimum inhibitory concentration (MIC)
Experimental: as §1

[13] = system: Pseudomonas aeruginosa E-2; test: Antibacterial activity (MIC), P. aeruginosa E-2; format: cell-based; details: E2; Pseudomonas aeruginosa E-2, Gram -; read-out: Minimum inhibitory concentration (MIC)
Experimental: as §1

[14] = system: Acinetobacter calcoaceticus AC 54; test: Antibacterial activity (MIC), Acinetobacter calcoaceticus AC 54; format: cell-based; details: AC54; Acinetobacter calcoaceticus AC 54, Gram -; read-out: Minimum inhibitory concentration (MIC)
Experimental: as §1

[15] = system: Staphylococcus aureus FDA 209P JC-1; test: Antibacterial activity (MIC), S. aureus FDA 209P JC-1; format: cell-based; details: FDA209P; Staphylococcus aureus FDA 209P JC-1, Gram +; read-out: Minimum inhibitory concentration (MIC)
Experimental: as §1

Shigella sonnei EW-33 = test: Antibacterial activity (MIC), Shigella sonnei EW-33; format: cell-based; details: Shigella sonnei, EW33, Shigella sonnei EW-33, Gram -; read-out: Minimum inhibitory concentration (MIC)
Experimental: as §1

[16] = system: Klebsiella pneumoniae PCI-602; test: Antibacterial activity (MIC), Klebsiella pneumoniae PCI-602; format: cell-based
Experimental: as §1

[17] = system: Escherichia coli NIHJ JC-2; test: Antibacterial activity (MIC), E. coli NIHJ JC-2; format: cell-based; details: NIHJJC2; Escherichia coli NIHJ JC-2, Gram -; read-out: Minimum inhibitory concentration (MIC)
Experimental: as §1

[18] = system: Salmonella typhimurium IID 971; test: Antibacterial activity (MIC), Salmonella typhimurium IID 971; format: cell-based; details: Salmonella enterica; Salmonella typhimurium IID 971, Gram -; read-out: Minimum inhibitory concentration (MIC)
Experimental: as §1

Escherichia coli KC-14 = test: Antibacterial activity (MIC), E. coli KC-14; format: cell-based; details: KC14; Escherichia coli KC-14, Gram -; read-out: Minimum inhibitory concentration (MIC)
Experimental: as §1

[19] = system: Staphylococcus aureus IID 803; test: Effect on treatment of general infectious disease, S. aureus IID 803 (Experiment 3); format: in vivo, ddY male mice infected with Staphylococcus aureus; details: IID803, 168 h, oral, 1 h after i.p. infection, 5.0×10^7 CFU/mouse, survival after one week
Experimental: Staphylococcus aureus IID 803 (5.0×10^7 CFU/mouse)
as §2, §3

[20] = system: Micrococcus luteus ATCC 9341; test: Antibacterial activity (MIC), Micrococcus luteus ATCC 9341; format: cell-based; details: ATCC9341; Micrococcus luteus ATCC 9341, Gram +; read-out: Minimum inhibitory concentration (MIC)
Experimental: as §1

[21] = system: Morganella morganii IFO 3848; test: Antibacterial activity (MIC), Morganella morganii IFO 3848; format: cell-based; details: Morganella morganii, IFO3848, Morganella morganii IFO 3848, Gram -; read-out: Minimum inhibitory concentration (MIC)
Experimental: as §1

Row | Compound | MIC [1] | MIC [2] | MIC50 [2] | MIC90 [2] | MIC [3] | MIC (Enterobacter cloacae 963) | MIC [4] | MIC [5] | MIC [6] | MIC (Proteus vulgaris OX-19) | ED50 [7] | MIC [8] | MIC [9] | MIC [10] | MIC [11] | MIC [12] | MIC [13] | MIC [14] | MIC [15] | MIC (Shigella sonnei EW-33) | other results
1 | CN1CCN(c2c(F)cc3c(=O)c(C(=O)O)c4scc5n4c3c2OC5)CC1 [Compound (Y), 9,1-Epoxymethano-7-fluoro-8-(4-methyl-1-piperazinyl)-5-oxo-5H-thiazolo[3,2-a]quinoline-4-carboxylic acid hydrochloride, reference compound] | 0.78 µg/mL | 0.05 to 0.39 µg/mL | 0.1 µg/mL | 0.2 µg/mL | 0.2 µg/mL | 0.1 µg/mL | 0.78 µg/mL | 0.2 µg/mL | 0.1 µg/mL | 0.05 µg/mL | 11.7 mg/kg | 0.1 µg/mL | 1.56 µg/mL | 0.39 µg/mL | 0.2 µg/mL | 0.39 µg/mL | 0.78 µg/mL | 0.2 µg/mL | 0.2 µg/mL | 0.05 µg/mL | MIC ([16]; Klebsiella pneumoniae, PCI602, read-out: Minimum inhibitory concentration (MIC)): 0.025 µg/mL; MIC [17]: 0.1 µg/mL; MIC [18]: 0.05 µg/mL; MIC (Escherichia coli KC-14): 0.1 µg/mL; ED50 [19]: 11.7 mg/kg; MIC [20]: 1.56 µg/mL; MIC [21]: 0.1 µg/mL
2 | CC1COc2c(N3CCN(C)CC3)c(F)cc3c(=O)c(C(=O)O)cn1c23 (stereo not drawn) [Compound (X), 9-Fluoro-3-methyl-10-(4-methyl-1-piperazinyl)-7-oxo-2,3-dihydro-7H-pyrido[1,2,3-de][1,4]-benzoxazine-6-carboxylic acid, reference compound] | 1.56 µg/mL (≈ 4.32 µM) | 0.39 to 1.56 µg/mL (≈ 1.08 to 4.32 µM) | 0.78 µg/mL (≈ 2.16 µM) | 1.56 µg/mL (≈ 4.32 µM) | 0.39 µg/mL (≈ 1.08 µM) | 0.2 µg/mL (≈ 0.553 µM) | 1.56 µg/mL (≈ 4.32 µM) | 0.39 µg/mL (≈ 1.08 µM) | 0.1 µg/mL (≈ 0.277 µM) | 0.05 µg/mL (≈ 0.138 µM) | 14 mg/kg | 0.1 µg/mL (≈ 0.277 µM) | 1.56 µg/mL (≈ 4.32 µM) | 0.78 µg/mL (≈ 2.16 µM) | 0.39 µg/mL (≈ 1.08 µM) | 0.78 µg/mL (≈ 2.16 µM) | 1.56 µg/mL (≈ 4.32 µM) | 0.39 µg/mL (≈ 1.08 µM) | 0.39 µg/mL (≈ 1.08 µM) | 0.05 µg/mL (≈ 0.138 µM) | MIC ([16]; PCI602, Klebsiella pneumoniae PCI-602, Gram -, read-out: Minimum inhibitory concentration (MIC)): 0.05 µg/mL (≈ 0.138 µM); MIC [17]: 0.1 µg/mL (≈ 0.277 µM); MIC [18]: 0.05 µg/mL (≈ 0.138 µM); MIC (Escherichia coli KC-14): 0.1 µg/mL (≈ 0.277 µM); ED50 [19]: 14 mg/kg; MIC [20]: 3.13 µg/mL (≈ 8.66 µM); MIC [21]: 0.1 µg/mL (≈ 0.277 µM)
